Values joined by “and” are separate entries in the source; they are usually repeats but may differ in a detail not shown here. Equal values may be shown once.
What was measured:
[1] = test system: VU0463271-induced phenotype (KCC2 inhibition) in zebrafish larvae; assay: animal or person
Method: To quantify the ability of the same drugs to reverse (or “rescue”) the phenotype caused by either 2.5 μM VU0463271 or 5 μM VU0240551, a rescue score between 0 (no rescue) and 1 (maximal theoretical rescue) was calculated (FIG. 2C). A rescue score incorporates and quantifies the degree of phenotypic reversal and the level of sedation in each concentration tested (see Materials and Methods below).
A diverse collection of 37,000 uncharacterized small molecules were used in a suppressor screen against either 2.5 μM VU0463271 (27,000 compounds) or 5 μM VU0240551 (10,000 compounds), along with 3,700 control wells treated with DMSO alone and 3,700 control wells treated with the KCC2 inhibitor. Each well of a 96-well plate containing at least about 8 zebrafish larvae was treated with a library compound or DMSO followed by treatment with the KCC2 inhibitor. Behavioral profiles pre- and post-treatment with the KCC2 inhibitor were evaluated using the behavioral assay battery described herein, and a detailed quantitative readout of about 15,000 time points was generated for each well. These behavioral profiles were used to calculate a screening score for each library compound, which incorporates and quantifies the rescue score and sedation index (see Materials and Methods).
In some cases, small molecules that alter the KCC2 inhibition phenotype may reverse the behavioral phenotype back to the normal, but could also elicit a new undesired phenotype, which is different from a normal behavior. To discriminate between these possibilities, vector algebra was used to compare each behavioral profile to the behavioral profile of DMSO-treated larvae and defined a value for the phenotypic distance from DMSO. The screen score of each compound was then plotted against its averaged phenotypic distance from DMSO (FIG. 3A) and MI (FIG. 3B) to filter out compounds that elicit a profile that is very different from the control one and compounds that reduce overall activity, respectively.
The reproducibility of the effects and the active concentration ranges of the 30 hits selected, as described above, were determined. Their rescue efficacies were retested in at least six concentrations and their rescue scores were also recalculated.
TT0023831 and six analogs were tested at a range of doses from 2.5-320 uM in a behavioral assay designed to assess the ability of compounds to suppress the effects of KCC2 inhibition. The graphs of FIG. 11 indicate the degree of suppression of the KCC2-inhibited phenotype, where a score of 1 represents complete restoration of KCC2-treated zebrafish to normal. […] Table 4 summarizes the estimated EC50 values and peak effect values for each compound.
A large number of fertilized zebrafish eggs (up to 20,000 embryos per day) were collected from group matings of wild type Ekkwill/Singapore zebrafish. Embryos were raised in hatching jars at 28° C. on a 14/10 hour light/dark cycle until 3 days post fertilization (dpf), then transferred to an incubator under the same conditions until 7 dpf. Groups of eight larvae (7 dpf) were distributed into the wells of a clear flat bottom square well 96-well plates filled with E3 medium (300 μl). Larvae were then incubated at 25° C. on the bench top for one-hour chemical treatment and subsequent experiments.
A library containing 37,000 uncharacterized small molecules was purchased from Life Chemicals and dissolved in DMSO at a stock concentration of 10 mM.

[2] = test system: PTZ-induced behavior in zebrafish larvae; assay: Suppression of PTZ-induced behavior in zebrafish larvae; format: in vivo; conditions: pre-treatment with 6 concentrations, then 5 mM PTZ
Method: Differences between behavioral profiles of larval zebrafish treated with KCC2 inhibitors and larval zebrafish treated with PTZ were investigated by evaluating the ability of traditional anti-seizure drugs to reverse their effects. Five drugs in at least six concentrations (by allocating 12 wells per concentration) were tested. These drugs included a benzodiazepine anxiolytic (diazepam), two AEDs that increase GABA levels in the synapse (tiagabine and valproate), a sodium channel blocker (phenytoin) and a synthetic neurosteroid GABAA positive allosteric modulator (PAM, ganaxolone).

[3] = test system: mouse maximal electroshock (MES) model; assay: Mouse maximal electroshock (MES) model; format: in vivo; conditions: animals protected from seizures / number tested
Method: (§1) TT0023831 and TT0042607 were tested in mammalian models of epilepsy. The two compounds were tested in the mouse 6 Hz 44 mA model and the mouse maximal electroshock (MES) model. A range of doses was examined, and results were reported as the number of animals protected from seizures out of the number tested (Table 5).

Nav1.2 = Nav1.2 (Homo sapiens, UniProt Q99250); conditions: 10-point CRC; TT002381 to a maximum of 100 μM
Sequence of Nav1.2 (Q99250 whole entry): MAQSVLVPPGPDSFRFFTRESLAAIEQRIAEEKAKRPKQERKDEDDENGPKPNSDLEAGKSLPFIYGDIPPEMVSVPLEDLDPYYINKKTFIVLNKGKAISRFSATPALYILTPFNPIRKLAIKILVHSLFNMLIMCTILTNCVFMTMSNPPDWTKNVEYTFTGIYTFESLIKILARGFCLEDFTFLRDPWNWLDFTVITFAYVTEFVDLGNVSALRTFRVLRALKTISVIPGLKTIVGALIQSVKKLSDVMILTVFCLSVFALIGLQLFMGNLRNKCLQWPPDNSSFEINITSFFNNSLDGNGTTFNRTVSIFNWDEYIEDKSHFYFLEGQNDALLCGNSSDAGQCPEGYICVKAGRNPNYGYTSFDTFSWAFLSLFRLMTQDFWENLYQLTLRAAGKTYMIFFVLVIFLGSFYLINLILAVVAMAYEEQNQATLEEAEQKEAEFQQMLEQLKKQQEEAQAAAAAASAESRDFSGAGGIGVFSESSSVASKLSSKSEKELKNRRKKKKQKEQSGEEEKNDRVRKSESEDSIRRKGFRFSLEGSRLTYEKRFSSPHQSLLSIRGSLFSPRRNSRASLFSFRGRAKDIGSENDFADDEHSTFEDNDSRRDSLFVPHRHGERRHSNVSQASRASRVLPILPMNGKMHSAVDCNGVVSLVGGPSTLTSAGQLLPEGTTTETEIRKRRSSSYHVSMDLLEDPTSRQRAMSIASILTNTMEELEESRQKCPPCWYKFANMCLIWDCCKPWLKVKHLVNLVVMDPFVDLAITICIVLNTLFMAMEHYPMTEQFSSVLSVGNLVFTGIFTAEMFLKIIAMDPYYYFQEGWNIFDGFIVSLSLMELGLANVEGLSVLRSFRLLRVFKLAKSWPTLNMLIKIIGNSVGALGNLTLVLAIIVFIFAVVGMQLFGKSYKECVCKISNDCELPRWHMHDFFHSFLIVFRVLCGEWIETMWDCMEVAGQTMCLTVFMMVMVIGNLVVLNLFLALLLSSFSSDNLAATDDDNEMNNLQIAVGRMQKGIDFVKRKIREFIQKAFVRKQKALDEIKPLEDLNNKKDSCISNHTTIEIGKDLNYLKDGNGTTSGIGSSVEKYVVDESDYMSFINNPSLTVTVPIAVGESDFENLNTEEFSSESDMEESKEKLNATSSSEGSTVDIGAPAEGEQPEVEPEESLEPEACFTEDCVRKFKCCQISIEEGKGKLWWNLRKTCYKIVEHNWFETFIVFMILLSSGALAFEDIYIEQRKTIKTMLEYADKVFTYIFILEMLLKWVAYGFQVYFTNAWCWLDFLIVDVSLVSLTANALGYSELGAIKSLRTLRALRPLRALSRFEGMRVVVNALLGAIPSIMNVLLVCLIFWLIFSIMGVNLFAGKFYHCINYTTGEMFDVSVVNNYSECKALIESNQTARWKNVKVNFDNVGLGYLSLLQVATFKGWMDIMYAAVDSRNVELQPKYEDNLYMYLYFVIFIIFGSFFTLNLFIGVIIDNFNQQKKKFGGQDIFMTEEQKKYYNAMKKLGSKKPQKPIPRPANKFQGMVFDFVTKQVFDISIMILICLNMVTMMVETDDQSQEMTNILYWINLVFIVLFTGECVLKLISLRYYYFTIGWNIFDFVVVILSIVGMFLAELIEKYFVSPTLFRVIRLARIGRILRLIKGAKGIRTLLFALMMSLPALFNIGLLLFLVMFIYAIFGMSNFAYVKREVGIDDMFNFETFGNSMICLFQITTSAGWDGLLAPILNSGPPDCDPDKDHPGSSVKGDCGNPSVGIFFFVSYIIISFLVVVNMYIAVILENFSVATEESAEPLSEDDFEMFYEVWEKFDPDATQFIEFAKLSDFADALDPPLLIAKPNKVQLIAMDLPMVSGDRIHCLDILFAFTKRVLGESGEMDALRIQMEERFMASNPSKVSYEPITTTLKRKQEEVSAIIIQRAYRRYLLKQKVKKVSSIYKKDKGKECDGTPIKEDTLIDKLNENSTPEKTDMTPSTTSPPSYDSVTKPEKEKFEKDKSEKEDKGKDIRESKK

mouse 6 Hz 44 mA model = assay: Mouse 6 Hz 44 mA model of epilepsy; format: in vivo; conditions: animals protected from seizures / number tested
Method: as §1

Nav1.1 = Nav1.1 (Homo sapiens, UniProt P35498); conditions: 10-point CRC; TT002381 to a maximum of 100 μM
Nav1.6 = Nav1.6 (Homo sapiens, UniProt Q9UQD0); conditions: 10-point CRC; TT002381 to a maximum of 100 μM
Sequence of Nav1.6 (Q9UQD0 whole entry): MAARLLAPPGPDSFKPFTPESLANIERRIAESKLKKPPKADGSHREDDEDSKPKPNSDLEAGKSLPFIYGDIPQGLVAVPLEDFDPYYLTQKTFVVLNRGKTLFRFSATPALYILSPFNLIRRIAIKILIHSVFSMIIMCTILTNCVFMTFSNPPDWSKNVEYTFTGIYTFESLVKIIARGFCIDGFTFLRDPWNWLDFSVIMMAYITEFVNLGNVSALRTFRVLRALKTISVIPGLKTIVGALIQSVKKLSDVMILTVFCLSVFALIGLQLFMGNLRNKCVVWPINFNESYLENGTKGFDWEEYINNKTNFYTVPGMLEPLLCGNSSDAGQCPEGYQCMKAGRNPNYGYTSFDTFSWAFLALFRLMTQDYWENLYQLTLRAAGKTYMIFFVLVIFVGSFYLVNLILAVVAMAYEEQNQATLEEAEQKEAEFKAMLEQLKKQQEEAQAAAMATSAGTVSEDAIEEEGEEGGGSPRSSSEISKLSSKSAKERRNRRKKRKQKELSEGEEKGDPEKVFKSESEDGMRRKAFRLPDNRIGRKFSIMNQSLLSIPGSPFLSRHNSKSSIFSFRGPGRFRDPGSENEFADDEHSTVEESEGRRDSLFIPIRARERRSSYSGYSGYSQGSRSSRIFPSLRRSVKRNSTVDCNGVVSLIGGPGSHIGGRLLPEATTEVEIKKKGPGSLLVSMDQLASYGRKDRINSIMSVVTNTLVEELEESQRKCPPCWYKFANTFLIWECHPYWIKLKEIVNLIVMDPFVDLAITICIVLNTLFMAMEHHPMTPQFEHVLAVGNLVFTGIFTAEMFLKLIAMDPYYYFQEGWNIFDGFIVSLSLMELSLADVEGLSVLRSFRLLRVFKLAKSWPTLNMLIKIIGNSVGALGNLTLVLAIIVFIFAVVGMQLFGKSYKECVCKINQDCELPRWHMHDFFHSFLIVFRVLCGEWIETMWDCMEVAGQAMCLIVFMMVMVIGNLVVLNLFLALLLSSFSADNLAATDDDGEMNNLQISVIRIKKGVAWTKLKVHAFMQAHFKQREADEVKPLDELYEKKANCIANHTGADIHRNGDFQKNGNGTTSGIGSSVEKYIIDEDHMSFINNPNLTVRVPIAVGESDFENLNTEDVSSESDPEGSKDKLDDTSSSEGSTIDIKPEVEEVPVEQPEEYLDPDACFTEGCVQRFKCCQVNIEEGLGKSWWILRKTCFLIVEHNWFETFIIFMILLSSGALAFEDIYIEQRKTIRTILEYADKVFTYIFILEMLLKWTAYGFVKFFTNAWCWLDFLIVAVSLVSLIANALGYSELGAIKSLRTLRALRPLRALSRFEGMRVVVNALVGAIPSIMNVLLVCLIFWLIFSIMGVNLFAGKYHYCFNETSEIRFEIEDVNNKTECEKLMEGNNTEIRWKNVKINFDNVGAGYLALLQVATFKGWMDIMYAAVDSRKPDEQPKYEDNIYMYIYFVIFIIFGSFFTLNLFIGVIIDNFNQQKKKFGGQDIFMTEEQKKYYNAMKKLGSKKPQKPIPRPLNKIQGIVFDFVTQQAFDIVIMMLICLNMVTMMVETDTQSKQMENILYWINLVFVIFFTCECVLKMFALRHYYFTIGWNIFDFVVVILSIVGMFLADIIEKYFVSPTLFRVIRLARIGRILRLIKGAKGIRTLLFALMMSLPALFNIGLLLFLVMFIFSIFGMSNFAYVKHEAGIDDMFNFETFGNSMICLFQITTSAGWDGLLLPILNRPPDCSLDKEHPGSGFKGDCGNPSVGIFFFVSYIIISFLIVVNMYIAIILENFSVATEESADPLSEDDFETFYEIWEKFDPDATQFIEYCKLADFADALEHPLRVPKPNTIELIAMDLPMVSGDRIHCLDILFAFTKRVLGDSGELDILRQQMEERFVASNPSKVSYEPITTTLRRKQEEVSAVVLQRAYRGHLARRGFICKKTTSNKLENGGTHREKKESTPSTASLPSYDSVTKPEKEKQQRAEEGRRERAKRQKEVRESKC

[4] = test system: cultured rat hippocampal neurons; assay: Gramicidin perforated patch clamp in cultured hippocampal neurons; format: cell-based
Method: Referring to FIG. 9, representative IV curves were generated (current-voltage curves) to characterise the intrinsic excitability of TT0023831 and TT0042607 in gramicidin perforated patch clamp studies, and to investigate whether the effects of the three hit compounds identified in the above-described suppressor screens translate to rodent models. The effects of these compounds were evaluated in cultured rat hippocampal neurons using the gramicidin perforated patch technique. The GABAA agonist, muscimol (1 μM), was used to measure EGABA values under basal conditions (FIG. 9). Perfusion of 30 μM TT0011235 potentiated GABAA-mediated currents, both muscimol-activated and endogenous post-synaptic potentials, and shifted the EGABA values (FIG. 9 and Appendix B). […] Treatment with 30 μM TT0042607 slowed the upstroke and repolarization, reduced the input resistant and thus, and reduced the number of open channels.

human KCC2 = biological target: T1, human KCC2 (Homo sapiens, UniProt Q9H2X9); assay: Thallium flux assay in HEK293 cells transiently transfected with human KCC2; format: cell-based; conditions: HEK293 cells over-expressing human KCC2
T1 construct: expressed in transfected cells; host or cells: HEK293
T1 sequence (Q9H2X9 1-1139): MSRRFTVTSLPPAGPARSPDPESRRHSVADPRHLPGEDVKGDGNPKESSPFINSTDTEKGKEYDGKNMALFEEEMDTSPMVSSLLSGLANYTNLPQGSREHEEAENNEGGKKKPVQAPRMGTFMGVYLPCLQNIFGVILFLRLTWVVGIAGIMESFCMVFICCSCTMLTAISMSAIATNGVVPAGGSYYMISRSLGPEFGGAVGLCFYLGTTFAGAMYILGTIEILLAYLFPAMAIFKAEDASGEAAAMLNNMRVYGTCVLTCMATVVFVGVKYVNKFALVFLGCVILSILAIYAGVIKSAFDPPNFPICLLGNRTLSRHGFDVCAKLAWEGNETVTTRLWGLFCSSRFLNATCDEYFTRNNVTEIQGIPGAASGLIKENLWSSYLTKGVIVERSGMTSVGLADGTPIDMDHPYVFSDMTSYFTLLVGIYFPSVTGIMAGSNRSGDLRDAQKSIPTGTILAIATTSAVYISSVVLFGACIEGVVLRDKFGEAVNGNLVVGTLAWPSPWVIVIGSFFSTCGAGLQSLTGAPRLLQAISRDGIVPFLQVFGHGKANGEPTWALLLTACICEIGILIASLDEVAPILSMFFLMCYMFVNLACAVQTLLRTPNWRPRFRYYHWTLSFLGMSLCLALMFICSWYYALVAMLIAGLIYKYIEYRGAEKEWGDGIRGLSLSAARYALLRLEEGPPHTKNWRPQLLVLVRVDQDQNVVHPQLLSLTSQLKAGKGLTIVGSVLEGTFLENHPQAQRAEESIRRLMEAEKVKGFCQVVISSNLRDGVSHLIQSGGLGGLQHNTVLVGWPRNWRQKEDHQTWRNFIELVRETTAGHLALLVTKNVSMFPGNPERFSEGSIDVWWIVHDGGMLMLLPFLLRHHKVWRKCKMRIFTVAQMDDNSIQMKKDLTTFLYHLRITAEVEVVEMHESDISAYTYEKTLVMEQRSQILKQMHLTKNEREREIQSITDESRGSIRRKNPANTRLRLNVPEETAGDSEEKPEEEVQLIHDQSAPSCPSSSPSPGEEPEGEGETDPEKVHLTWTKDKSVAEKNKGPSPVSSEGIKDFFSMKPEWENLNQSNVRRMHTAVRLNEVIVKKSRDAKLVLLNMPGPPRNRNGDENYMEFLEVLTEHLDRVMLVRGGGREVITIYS
Method: Phenotype-based screens, as described herein, are high-content and make use of complex behaviors to identify novel modulators, which may function through various mechanisms. Thus, hits identified in the suppressor screens described herein may or may not act directly on KCC2. To test whether the three hit compounds directly alter the activity of the transporter, thallium flux assays were performed in HEK293 cells transiently transfected with human KCC2 in order to measure the influx rate of KCC2 activity (see, e.g., Appendix B).

zebrafish larvae = format: in vivo
Text: In an effort to determine how pharmacological inhibition of KCC2 affects zebrafish behaviors, 7 days post-fertilization (dpf) zebrafish larvae can be treated with two analogs of the selective KCC2 inhibitor, VU0463271 and VU0240551, and their behavioral responses in a battery of behavioral assays can be assessed. These behavioral assays can include a series of visual and acoustic stimuli presented to larval zebrafish in various contexts and combinations to elicit robust and reproducible patterns of activity. For example, behavioral assays can include two acoustic-stimulus-response (ASR1 and ASR2) assays, six visual-stimulus-response (VSR1-VSR6) assays, and three assays that combine acoustic and visual stimulus responses (AVSR1-AVSR3). Together, such a battery of behavioral assays use six stimuli, including red light (600 nm), blue light (420 nm), violet light (405 nm), green light (525 nm), low-intensity sound (60 dB) and high-intensity sound (70 dB). Behavioral responses of the larval zebrafish can be measured by a motion index (MI) that quantifies the motor activity of at least about 8 zebrafish larvae in each well of a 96-well plate.
Referring to FIGS. 1A-1B, zebrafish behavioral profiles can include a battery of individual behavioral assays labeled ASR1, AVSR1, ASR2, VSR1, VSR2, VSR3, VSR4, AVSR2, VSR5, AVSR3, and VSR6, as described herein. These behavioral assays can be combined to form a Motion Index (MI), which is a quantification of the motor activity of at least about 8 zebrafish larvae in each well of a 96-well plate. As shown in the representative images of FIGS. 1A-1B, zebrafish larvae were treated with DMSO (control), VU0463271 (FIG. 1A), or pentylentetrazol or PTZ (FIG. 1B).
Treatment with increasing doses of VU0463271 induced a unique and dose-dependent profile of behavioral responses, detectable at 2.5 μM and 5 μM. […] This relatively low concentration of VU0463271 elicited a reproducible behavioral profile with altered sensitivity of the fish larvae to specific combinations of stimuli. […] The increased MI in the AVSR1 and AVSR3 assays due to VU0463271 treatment reflects a seizure-like hyperexcitability in the larval fish.
Additionally, seizures have been induced in 7 dpf zebrafish larvae using pentylentetrazol (PTZ) treatment, and motor and electroencephalographic (EEG) responses were consistent with seizure phenotypes.

Question: `COc1cc(C)c(C(C)C)cc1S(=O)(=O)NCCN1CCOCC1` [TT0023831, 5-isopropyl-2-methoxy-4-methyl-N-(2-morpholinoethyl)benzene-sulfonamide] was tested. Which “overall motor activity of the larvae” value ([1]; 80 μM, reduced the rescue score) did it give?
Answer: reduced the overall motor activity

Question: What about the EC50 ([1]; Danio rerio, read-out: in vivo EC50) of the same molecule?
Answer: 5 µM

Question: What about the peak activity ([1]; concentration of peak effect, doses 2.5-320 uM, suppression of KCC2-inhibited phenotype in zebrafish) of the same molecule?
Answer: 20 µM

Question: And the “concentration of best phenotypic reversal” value ([1]; tested at 2.5-80 μM, high rescue scores)?
Answer: 20 µM and 40 µM

Question: What about the “suppression score dose response compared with other compounds as suppressor of the hyperexcitability phenotype” value ([1]; zebrafish, FIG. 8 / FIG. 10) of the same molecule?
Answer: outperform both tiagabine and valproic acid

Question: What about the “suppression of PTZ-induced hyperactivity in response to the different stimuli” value [2] of the same molecule?
Answer: did not

Question: What about the “Rescued (MES model)” value ([3]; 10 mg/kg) of the same molecule?
Answer: 0/4

Question: What about the “Rescued (MES model)” value ([3]; 30 mg/kg) of the same molecule?
Answer: 2/4

Question: What about the “Rescued (MES model)” value ([3]; 100 mg/kg) of the same molecule?
Answer: 2/4

Question: What about the “inhibition of Nav1.2” value (Nav1.2) of the same molecule?
Answer: concentration-dependent inhibition

Question: And the “Rescued (6 Hz model)” value (mouse 6 Hz 44 mA model; 50 mg/kg)?
Answer: 0/8

Question: What about the “Rescued (6 Hz model)” value (mouse 6 Hz 44 mA model; 100 mg/kg) of the same molecule?
Answer: 3/8

Question: What about the “Rescued (6 Hz model)” value (mouse 6 Hz 44 mA model; 200 mg/kg) of the same molecule?
Answer: 7/8

Question: What about the “inhibition of Nav1.1” value (Nav1.1) of the same molecule?
Answer: concentration-dependent inhibition

Question: What about the “inhibition of Nav1.6” value (Nav1.6) of the same molecule?
Answer: concentration-dependent inhibition

Question: What about the “effect on GABAA-mediated currents” value [4] of the same molecule?
Answer: neither TT0023831 nor TT0042607 appeared to have an effect

Question: What about the “firing rates of the cultured neurons” value [4] of the same molecule?
Answer: reduced the firing rates

Question: And the spike initiation [4]?
Answer: delayed spike initiation

Question: And the action potential threshold ([4]; 30 μM)?
Answer: raising

Question: And the input resistant ([4]; 30 μM)?
Answer: without changing

Question: And the “number of open channels (open at rest)” value ([4]; 30 μM)?
Answer: without affecting

Question: What about the rheobase ([4]; 30 μM) of the same molecule?
Answer: increased

Question: `CCN1C(=O)C=CC1=O` [N-ethylmaleimide] was tested. Which “rate of 10 mM [K+]o-induced thallium influx (KCC2-mediated flux)” value (human KCC2) did it give?
Answer: significantly increased

Question: With `Cc1csc(N(C(=O)CSc2ccc(-c3ccccc3)nn2)C2CC2)n1` [VU0463271, N-Cyclopropyl-N-(4-methyl-2-thiazolyl)-2-[(6-phenyl-3-pyridazinyl)thio]acetamide] as the molecule, how does the “MI in the ASR2 and VSR assays” value (zebrafish larvae; 2.5 μM) read?
Answer: reduced

Question: What about the “behavioral responses in the AVSR1 and AVSR3 assays” value (zebrafish larvae; 2.5 μM, seizure-like hyperexcitability) of the same molecule?
Answer: increased

Question: What about the “effect on MI along the assay battery” value (zebrafish larvae; 10 μM, very low MI) of the same molecule?
Answer: sedative effect

Question: What about the “concentration at which the dose-dependent profile of behavioral responses was detectable” value (zebrafish larvae; 7 dpf larvae) of the same molecule?
Answer: 2.5 µM and 5 µM

Question: What about the “rate of 10 mM [K+]o-induced thallium influx (KCC2-mediated flux)” value (human KCC2) of the same molecule?
Answer: significantly reduced

Source: patent publication US20180161310A1, “COMPOUNDS AND METHODS FOR THE TREATMENT OF NEUROLOGICAL DISORDERS” (Teleos Therapeutics, LLC, priority 2016, published 2018)
